Laboratory results taken from US12486269B2 (Aconcagua Bio, Inc., priority 2024, dated 2025).

Tests used:
[1] = molecular target: T1, human calcitonin receptor (CTR) (Homo sapiens, UniProt P30988); experiment: Calcitonin Receptor (CTR) cAMP Assay; format: cell-based; conditions: COS7-human CTR Clone #2 stable cell line, cAMP dynamic 2 kit, 30 min; read-out: Calcitonin Receptor cAMP Stimulation Activity: EC50
T1 construct: expressed in transfected cells; host or cells: COS-7 (COS7-human CTR Clone #2)
T1 sequence (P30988 25-474): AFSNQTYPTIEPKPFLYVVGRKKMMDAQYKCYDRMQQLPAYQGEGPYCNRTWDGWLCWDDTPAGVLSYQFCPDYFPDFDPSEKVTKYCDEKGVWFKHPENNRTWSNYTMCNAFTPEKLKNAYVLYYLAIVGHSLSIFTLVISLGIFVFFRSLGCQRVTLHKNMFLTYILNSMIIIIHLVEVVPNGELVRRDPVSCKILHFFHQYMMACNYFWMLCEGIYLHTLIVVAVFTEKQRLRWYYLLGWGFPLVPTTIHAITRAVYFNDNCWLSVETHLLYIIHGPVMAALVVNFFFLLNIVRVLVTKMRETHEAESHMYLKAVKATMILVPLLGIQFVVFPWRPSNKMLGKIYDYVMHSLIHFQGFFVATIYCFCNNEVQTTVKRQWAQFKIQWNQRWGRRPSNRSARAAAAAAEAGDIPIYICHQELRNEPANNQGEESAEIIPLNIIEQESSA
How it was run: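 COS-7 cells stably expressing human CTR (2000 cells/well) were incubated 30 min at 37 °C with 4-fold serially diluted compound in HBSS/20 mM HEPES/0.5 mM IBMX/0.1% casein. cAMP was detected by HTRF (665/615 nm) after 1 h at RT. % activity was normalised to vehicle and positive controls.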

[2] = molecular target: T2, COS-7/AMY3 (human calcitonin receptor (CTR) and RAMP3) (Homo sapiens, UniProt O60896+P30988); experiment: Amylin Receptor cAMP Assay II; format: cell-based; conditions: values marked **: Amylin Receptor cAMP Assay II; COS-7/AMY3 cells, cAMP dynamic 2 kit, 30 min; read-out: Amylin Receptor cAMP Stimulation Activity: EC50
T2 construct: expressed in transfected cells; host or cells: COS-7
T2 sequence (O60896 24-148, one chain of several): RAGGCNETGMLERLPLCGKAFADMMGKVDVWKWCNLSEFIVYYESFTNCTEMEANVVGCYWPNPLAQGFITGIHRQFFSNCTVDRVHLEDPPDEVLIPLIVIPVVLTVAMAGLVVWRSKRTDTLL
How it was run: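 COS-7 cells stably co-expressing human CTR and RAMP3 (AMY3), 2000 cells/well in HBSS with 20 mM HEPES, 0.5 mM IBMX, 0.1% casein, stimulated with compound for 30 min at 37 °C. cAMP measured by HTRF (665/615 nm), activity normalized between vehicle and maximal control.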

| EC50 [1] [nM] | EC50 [2] [nM] | SMILES |
| --- | --- | --- |
| 0.668 | 18.4 | COc1cccc2c1CC[C@H]2Nc1nccc2cc(-c3c4c(nc(CCc5ccc(Cl)cc5)c3-c3n[nH]c(=O)o3)[C@@H]3CCCN3C4=O)sc12 [Compound 242, 5-((S)-2-(4-chlorophenethyl)-4-(7-(((R)-4-methoxy-2,3-dihydro-1H-inden-1-yl)amino)thieno[2,3-c]pyridin-2-yl)-5-oxo-7,8,9,9a-tetrahydro-5H-pyrido[2,3-a]pyrrolizin-3-yl)-1,3,4-oxadiazol-2(3H)-one] |
| 0.0341 | 0.629 | COc1c(F)ccc2c1CC[C@H]2Nc1nc(C)cc2cc(-c3c4c(nc(CCc5ccc(F)cc5)c3-c3n[nH]c(=O)o3)[C@@H]3COCCN3C4=O)sc12 [Compound 263, (R)-4-(7-(((R)-5-fluoro-4-methoxy-2,3-dihydro-1H-inden-1-yl)amino)-5-methylthieno[2,3-c]pyridin-2-yl)-2-(4-fluorophenethyl)-3-(5-oxo-4,5-dihydro-1,3,4-oxadiazol-2-yl)-7,8,10,10a-tetrahydro-5H-pyrido[2′,3′:3,4]pyrrolo[2,1-c][1,4]oxazin-5-one] |
| 0.0708 | 1.88 | Cc1cc2cc(-c3c4c(nc(CCc5ccc(F)cc5)c3-c3n[nH]c(=O)o3)[C@@H]3CCCN3C4=O)sc2c(N[C@@H]2CCc3cc(F)c(F)cc32)n1 [Compound 253, 5-((S)-4-(7-(((R)-5,6-difluoro-2,3-dihydro-1H-inden-1-yl)amino)-5-methylthieno[2,3-c]pyridin-2-yl)-2-(4-fluorophenethyl)-5-oxo-7,8,9,9a-tetrahydro-5H-pyrido[2,3-a]pyrrolizin-3-yl)-1,3,4-oxadiazol-2(3H)-one] |
| 7.28 | 82.8 | COc1cccc2c1CC(F)(F)[C@@H]2Nc1nccc2cc(-c3c4c(nc(CCc5ccc(F)cc5)c3-c3n[nH]c(=O)o3)[C@@H]3CCCN3C4=O)sc12 [Compound 251, 5-((S)-4-(7-(((R)-2,2-difluoro-4-methoxy-2,3-dihydro-1H-inden-1-yl)amino)thieno[2,3-c]pyridin-2-yl)-2-(4-fluorophenethyl)-5-oxo-7,8,9,9a-tetrahydro-5H-pyrido[2,3-a]pyrrolizin-3-yl)-1,3,4-oxadiazol-2(3H)-one] |
| 1.18 | 11.2 | COc1cccc2c1CC[C@H]2Nc1nccc2cc(-c3c4c(nc(CCc5ccc(-n6cccn6)cc5)c3-c3n[nH]c(=O)o3)[C@@H]3CCCN3C4=O)sc12 [Compound 243, 5-((S)-2-(4-(1H-pyrazol-1-yl)phenethyl)-4-(7-(((R)-4-methoxy-2,3-dihydro-1H-inden-1-yl)amino)thieno[2,3-c]pyridin-2-yl)-5-oxo-7,8,9,9a-tetrahydro-5H-pyrido[2,3-a]pyrrolizin-3-yl)-1,3,4-oxadiazol-2(3H)-one] |
| 0.0551 | 0.857 | COc1c(F)ccc2c1C[C@@H](F)[C@H]2Nc1nc(C)cc2cc(-c3c4c(nc(CCc5ccc(F)cc5)c3-c3n[nH]c(=O)o3)[C@@H]3CCCN3C4=O)sc12 [Compound 301, 5-((S)-4-(7-(((1S,2R)-2,5-difluoro-4-methoxy-2,3-dihydro-1H-inden-1-yl)amino)-5-methylthieno[2,3-c]pyridin-2-yl)-2-(4-fluorophenethyl)-5-oxo-7,8,9,9a-tetrahydro-5H-pyrido[2,3-a]pyrrolizin-3-yl)-1,3,4-oxadiazol-2(3H)-one] |

The remaining lines, values behind:

| SMILES | EC50 [1] [nM] | EC50 [2] [nM] |
| --- | --- | --- |
| COc1cccc2c1CC[C@H]2Nc1nccc2cc(-c3c4c(nc(CCC5CCCCC5)c3-c3n[nH]c(=O)o3)[C@@H]3CCCN3C4=O)sc12 [Compound 172, 5-((S)-2-(2-cyclohexylethyl)-4-(7-(((R)-4-methoxy-2,3-dihydro-1H-inden-1-yl)amino)thieno[2,3-c]pyridin-2-yl)-5-oxo-7,8,9,9a-tetrahydro-5H-pyrido[2,3-a]pyrrolizin-3-yl)-1,3,4-oxadiazol-2(3H)-one] | 2.06 | 51.1 |
| O=C1c2c(nc(CCc3ccc(F)cc3)c(-c3n[nH]c(=O)o3)c2-c2cc3ccnc(N[C@@H]4CCc5cc(F)ccc54)c3s2)[C@@H]2CCCN12 [Compound 184, 5-((S)-4-(7-(((R)-5-fluoro-2,3-dihydro-1H-inden-1-yl)amino)thieno[2,3-c]pyridin-2-yl)-2-(4-fluorophenethyl)-5-oxo-7,8,9,9a-tetrahydro-5H-pyrido[2,3-a]pyrrolizin-3-yl)-1,3,4-oxadiazol-2(3H)-one] | 0.247 | 3.59 |
| N#Cc1ccc(Cn2ccc3cc(-c4c(-c5cc(=O)[nH]o5)c(CCC5CCOCC5)nc5c4S(=O)(=O)N4CCC[C@@H]54)ccc32)cc1F [Compound 200, 4-[[5-[(2S)-7,7-dioxo-10-(3-oxoisoxazol-5-yl)-11-(2-tetrahydropyran-4-ylethyl)-7thia-6,12-diazatricyclo[6.4.0.02,6]dodeca-1(8),9,11-trien-9-yl]indol-1-yl]methyl]-2-fluoro-benzonitrile] | 8.61 | 1310 |
| COc1cccc2c1CC[C@H]2Nc1nccc2cc(-c3c4c(nc(CCc5ccc(F)cc5)c3-c3n[nH]c(=O)s3)[C@@H]3CCCN3C4=O)sc12 [Compound 225, 5-((S)-2-(4-fluorophenethyl)-4-(7-(((R)-4-methoxy-2,3-dihydro-1H-inden-1-yl)amino)thieno[2,3-c]pyridin-2-yl)-5-oxo-7,8,9,9a-tetrahydro-5H-pyrido[2,3-a]pyrrolizin-3-yl)-1,3,4-thiadiazol-2(3H)-one] | 0.836 | 14.6 |
| O=C1c2c(nc(CCc3ccc(F)cc3)c(-c3n[nH]c(=O)o3)c2-c2cnc3c(ccn3Cc3ncc(Cl)cc3F)c2)[C@@H]2CCCN12 [Compound 211, (S)-5-(4-(1-((5-chloro-3-fluoropyridin-2-yl)methyl)-1H-pyrrolo[2,3-b]pyridin-5-yl)-2-(4-fluorophenethyl)-5-oxo-7,8,9,9a-tetrahydro-5H-pyrido[2,3-a]pyrrolizin-3-yl)-1,3,4-oxadiazol-2(3H)-one] | 3.85 | 434 |
| COc1cccc2c1CC[C@H]2Nc1nccc2cc(-c3c4c(nc(CCc5ccc(F)cc5)c3-c3n[nH]c(=O)o3)[C@@H]3COCCN3C4=O)sc12 [Compound 235, (R)-2-(4-fluorophenethyl)-4-(7-(((R)-4-methoxy-2,3-dihydro-1H-inden-1-yl)amino)thieno[2,3-c]pyridin-2-yl)-3-(5-oxo-4,5-dihydro-1,3,4-oxadiazol-2-yl)-7,8,10,10a-tetrahydro-5H-pyrido[2′,3′:3,4]pyrrolo[2,1-c][1,4]oxazin-5-one] | 0.236 | 18.1 |
| COc1cccc2c1CC[C@H]2Nc1nccc2cc(-c3c(-c4n[nH]c(=O)o4)c(CCc4ccc(F)cc4)nc4c3C(=O)N3C[C@H]5C[C@@]43C5)sc12 [Compound 181, (R)-5-(2-(4-fluorophenethyl)-4-(7-((4-methoxy-2,3-dihydro-1H-inden-1-yl)amino)thieno[2,3-c]pyridin-2-yl)-5-oxo-8,9-dihydro-5H,7H-8,9a-methanopyrido[2,3-a]pyrrolizin-3-yl)-1,3,4-oxadiazol-2(3H)-one] | 0.105 | 3.5 |
| N#Cc1cc2c(cc1F)[C@H](Nc1nccc3cc(-c4c5c(nc(CCc6ccc(F)cc6)c4-c4n[nH]c(=O)o4)[C@@H]4CCCN4C5=O)sc13)CC2 [Compound 165, (R)-6-fluoro-1-((2-((S)-2-(4-fluorophenethyl)-5-oxo-3-(5-oxo-4,5-dihydro-1,3,4-oxadiazol-2-yl)-7,8,9,9a-tetrahydro-5H-pyrido[2,3-a]pyrrolizin-4-yl)thieno[2,3-c]pyridin-7-yl)amino)-2,3-dihydro-1H-indene-5-carbonitrile] | 0.539 | 6.73 |
